In the supplement of paper PMC13380429:

Legend:
Settings in all cases: 72 h
Vero E6 [1] = assay: drug sensitivity score (DSS) for viability; higher = more toxic; extreme values may be limits of the assay
U2OS [2] = assay: as above
Caco-2 [3] = assay: as above
Calu-3 [4] = assay: as above
HepG2 [5] = assay: as above
Vero E6 [6] = assay: cell viability relative to DMSO; higher = less toxic
U2OS [7] = assay: as above
Caco-2 [8] = assay: as above
Calu-3 [9] = assay: as above
HepG2 [10] = assay: as above
Vero E6 [11] = assay: relative viability EC50 (midpoint between 100% and the lowest measured viability); higher = less toxic
U2OS [12] = assay: as above
Caco-2 [13] = assay: as above
Calu-3 [14] = assay: as above
HepG2 [15] = assay: as above

Row | SMILES | drug sensitivity score (Vero E6 [1]) | drug sensitivity score (U2OS [2]) | drug sensitivity score (Caco-2 [3]) | drug sensitivity score (Calu-3 [4]) | drug sensitivity score (HepG2 [5]) | cell viability (Vero E6 [6]; 1 nM) [%] | cell viability (Vero E6 [6]; 10 nM) [%] | cell viability (Vero E6 [6]; 100 nM) [%] | cell viability (Vero E6 [6]; 1000 nM) [%] | cell viability (Vero E6 [6]; 10000 nM) [%] | cell viability (U2OS [7]; 1 nM) [%] | cell viability (U2OS [7]; 10 nM) [%] | cell viability (U2OS [7]; 100 nM) [%] | cell viability (U2OS [7]; 1000 nM) [%] | cell viability (U2OS [7]; 10000 nM) [%] | cell viability (Caco-2 [8]; 1 nM) [%] | cell viability (Caco-2 [8]; 10 nM) [%] | cell viability (Caco-2 [8]; 100 nM) [%] | cell viability (Caco-2 [8]; 1000 nM) [%] | cell viability (Caco-2 [8]; 10000 nM) [%] | cell viability (Calu-3 [9]; 1 nM) [%] | cell viability (Calu-3 [9]; 10 nM) [%] | cell viability (Calu-3 [9]; 100 nM) [%] | cell viability (Calu-3 [9]; 1000 nM) [%] | cell viability (Calu-3 [9]; 10000 nM) [%] | cell viability (HepG2 [10]; 1 nM) [%] | cell viability (HepG2 [10]; 10 nM) [%] | cell viability (HepG2 [10]; 100 nM) [%] | cell viability (HepG2 [10]; 1000 nM) [%] | cell viability (HepG2 [10]; 10000 nM) [%] | relative viability EC50 (Vero E6 [11]) [µM] | relative viability EC50 (U2OS [12]) [µM] | relative viability EC50 (Caco-2 [13]) [µM] | relative viability EC50 (Calu-3 [14]) [µM] | relative viability EC50 (HepG2 [15]) [µM]
1 | N#C/C(=C1/SC[C@@H](c2ccc(Cl)cc2Cl)S1)n1ccnc1 [luliconazole] | 0 | 0 | 0 | 0 | 0 | 101 | 99 | 93.8 | 102 | 94.5 | 100 | 100 | 98.9 | 96.7 | 96.9 | 102 | 98.1 | 96.7 | 90.6 | 89.7 | 95.8 | 109 | 96.8 | 95.7 | 89.6 | 104 | 105 | 97.5 | 105 | 96 | > 10 | > 10 | > 10 | > 10 | > 10
2 | Cc1ccc(Nc2c(F)cccc2Cl)c(CC(=O)O)c1 [lumiracoxib] | 0 | 0 | 0 | 0 | 0 | 95.4 | 94.8 | 105 | 100 | 100 | 94.1 | 98.7 | 94.8 | 103 | 105 | 93 | 97 | 95 | 100 | 107 | 93.7 | 93.9 | 90.8 | 98.9 | 104 | 97 | 103 | 109 | 106 | 118 | > 10 | > 10 | > 10 | > 10 | > 10
3 | C=CCc1ccc(O)c(-c2cc(CC=C)ccc2O)c1 [magnolol] | 0 | 0 | 0 | 0 | 0 | 98.6 | 98.3 | 98.9 | 101 | 94.8 | 96.7 | 102 | 99.2 | 102 | 95.3 | 104 | 95.3 | 88.6 | 102 | 89.5 | 99.3 | 90.3 | 90.3 | 99.4 | 110 | 97.8 | 85.7 | 97.8 | 102 | 106 | > 10 | > 10 | > 10 | > 10 | > 10
4 | CN1C[C@@H](NS(=O)(=O)N(C)C)C[C@@H]2c3cccc4c3c(cn4C)C[C@H]21 [mesulergine] | 0 | 0 | 0 | 0 | 0 | 97.5 | 104 | 94.1 | 97.9 | 94.9 | 103 | 100 | 101 | 101 | 99.9 | 108 | 102 | 105 | 98.9 | 108 | 111 | 106 | 107 | 96.1 | 102 | 101 | 99.3 | 106 | 108 | 100 | > 10 | > 10 | > 10 | > 10 | > 10
5 | Clc1ccc(C(c2ccccc2Cl)C(Cl)Cl)cc1 (stereo not given) [mitotane] | 0 | 0 | 0 | 0 | 0 | 106 | 96.6 | 101 | 101 | 97.6 | 98.5 | 93.2 | 98.6 | 97.7 | 97.7 | 100 | 90.7 | 97.9 | 99.4 | 91.9 | 92.8 | 102 | 89.1 | 97.1 | 99.6 | 89.9 | 89.9 | 87.9 | 85.4 | 94.6 | > 10 | > 10 | > 10 | > 10 | > 10
6 | O=C(OCCN1CCOCC1)c1cccnc1Nc1cccc(C(F)(F)F)c1 [morniflumate] | 0 | 0 | 0.5 | 0 | 0 | 107 | 100 | 102 | 105 | 99.3 | 96.5 | 104 | 97.8 | 97.8 | 97.3 | 120 | 103 | 99 | 102 | 80.1 | 91.9 | 97.1 | 102 | 106 | 108 | 90.8 | 93.8 | 87.3 | 94.7 | 88.4 | > 10 | > 10 | > 10 | > 10 | > 10
